According to patent publication US10196390B2, “TYK2 inhibitors and uses thereof” (Nimbus Lakshmi, Inc., priority 2014, dated 2019):

Columns and labels:
[1] = target: TYK2 (Homo sapiens (Human), UniProt P29597); assay: Tyk2 activity inhibition assay (radioactive kinase assay / Caliper assay); assay type: biochemical
Method: Peptide substrate, [[…]], (20 μM) is prepared in reaction buffer (20 mM Hepes pH 7.5, 10 mM MgCl2, 1 mM EGTA, 0.02% Brij35, 0.02 mg/mL BSA, […], 2 mM DTT, 1% DMSO. TYK2 (Invitrogen) kinase is added, followed by compounds in DMSO. 33PATP is added to initiate the reaction in ATP at 10 μM. Kinase reaction is incubated for 120 min at room temp and reactions are spotted onto P81 ion exchange paper (Whatman #3698-915), and then washed extensively in 0.75% phosphoric acid, prior to reading the radioactivity counts. For JAK2 (Invitrogen) kinase assay the peptide substrate poly[Glu:Tyr](4:1), 0.2 mg/ml is used, in the reaction carried out the same as for TYK2.
(§1) The caliper machine employs an off chip mobility shift assay to detect phosphorylated peptide substrates from kinase assays, using microfluidics technology. The assays are carried out at ATP concentration equivalent to the ATP Km, and at 1 mM ATP. Compounds are serially diluted in DMSO then further diluted in assay buffer (25 mM HEPES, pH 7.5, 0.01% Brij-35, 0.01% Triton, 0.5 mM EGTA). 5 ul of diluted compound was added into wells first, then 10 ul of enzyme mix was added into wells, followed by 10 uL of substrate mix (peptide and ATP in 10 mM MgCl2) to start reaction. Reaction was incubated at 28° C. for 25 min and then added 25 ul stop buffer (100 mM HEPES, 0.015% Brij-35, 50 mM EDTA), followed by reading with Caliper. JAK2 at 1 nM final concentration and TYK2 at 9.75 nM are from Carna, and substrates used are ATP at 20 and 16 uM, respectively. JAK2 assay uses peptide 22 and TYK2 uses peptide 30 (Caliper), each at 3 uM.

[2] = target: JAK2 (Homo sapiens (Human), UniProt O60674); assay: JAK2 activity inhibition assay (radioactive kinase assay / Caliper assay); assay type: biochemical; conditions: read-out: JAK2 Ki
Method: as §1, with “The assays are carried out at ATP concentration equivalent to the ATP Km, and at 1 mM ATP.” left out, “Caliper.” for “Caliper. JAK2 at 1 nM final concentration and TYK2 at 9.75 nM are from Carna, and substrates used are ATP at 20 and 16 uM, respectively. JAK2 assay uses peptide 22 and TYK2 uses peptide 30 (Caliper), each at 3 uM.”

Chain of TYK2 (P29597 whole entry): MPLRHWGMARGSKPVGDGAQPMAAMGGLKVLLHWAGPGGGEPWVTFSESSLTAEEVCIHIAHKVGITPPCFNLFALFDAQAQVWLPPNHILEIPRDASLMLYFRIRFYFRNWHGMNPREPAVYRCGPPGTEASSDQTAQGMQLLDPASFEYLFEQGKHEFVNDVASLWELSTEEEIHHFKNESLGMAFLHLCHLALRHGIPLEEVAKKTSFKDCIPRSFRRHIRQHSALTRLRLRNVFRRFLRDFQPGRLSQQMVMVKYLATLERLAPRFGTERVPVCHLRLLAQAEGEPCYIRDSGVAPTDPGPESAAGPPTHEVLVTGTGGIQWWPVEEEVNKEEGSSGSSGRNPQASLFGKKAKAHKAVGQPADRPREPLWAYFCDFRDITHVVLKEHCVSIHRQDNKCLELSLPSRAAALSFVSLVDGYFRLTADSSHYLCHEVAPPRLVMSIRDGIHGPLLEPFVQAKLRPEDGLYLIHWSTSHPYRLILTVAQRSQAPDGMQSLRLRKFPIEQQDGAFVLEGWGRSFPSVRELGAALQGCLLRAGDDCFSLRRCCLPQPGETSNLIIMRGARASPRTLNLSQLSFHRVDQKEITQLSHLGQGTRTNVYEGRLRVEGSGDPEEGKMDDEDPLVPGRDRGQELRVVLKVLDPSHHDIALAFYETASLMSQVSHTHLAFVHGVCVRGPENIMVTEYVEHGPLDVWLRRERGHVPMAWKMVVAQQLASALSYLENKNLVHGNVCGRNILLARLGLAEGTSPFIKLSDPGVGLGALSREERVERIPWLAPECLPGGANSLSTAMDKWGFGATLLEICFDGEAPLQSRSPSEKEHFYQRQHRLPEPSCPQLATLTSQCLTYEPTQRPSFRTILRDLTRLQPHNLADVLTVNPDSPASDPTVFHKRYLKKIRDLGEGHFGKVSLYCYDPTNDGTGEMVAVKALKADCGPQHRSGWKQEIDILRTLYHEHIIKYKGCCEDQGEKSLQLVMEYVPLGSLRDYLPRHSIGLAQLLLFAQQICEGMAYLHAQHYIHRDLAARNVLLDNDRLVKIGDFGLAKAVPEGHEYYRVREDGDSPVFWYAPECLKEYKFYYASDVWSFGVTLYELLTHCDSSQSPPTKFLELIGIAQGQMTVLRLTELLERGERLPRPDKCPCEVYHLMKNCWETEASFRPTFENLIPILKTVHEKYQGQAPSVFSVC
Chain of JAK2 (O60674 whole entry): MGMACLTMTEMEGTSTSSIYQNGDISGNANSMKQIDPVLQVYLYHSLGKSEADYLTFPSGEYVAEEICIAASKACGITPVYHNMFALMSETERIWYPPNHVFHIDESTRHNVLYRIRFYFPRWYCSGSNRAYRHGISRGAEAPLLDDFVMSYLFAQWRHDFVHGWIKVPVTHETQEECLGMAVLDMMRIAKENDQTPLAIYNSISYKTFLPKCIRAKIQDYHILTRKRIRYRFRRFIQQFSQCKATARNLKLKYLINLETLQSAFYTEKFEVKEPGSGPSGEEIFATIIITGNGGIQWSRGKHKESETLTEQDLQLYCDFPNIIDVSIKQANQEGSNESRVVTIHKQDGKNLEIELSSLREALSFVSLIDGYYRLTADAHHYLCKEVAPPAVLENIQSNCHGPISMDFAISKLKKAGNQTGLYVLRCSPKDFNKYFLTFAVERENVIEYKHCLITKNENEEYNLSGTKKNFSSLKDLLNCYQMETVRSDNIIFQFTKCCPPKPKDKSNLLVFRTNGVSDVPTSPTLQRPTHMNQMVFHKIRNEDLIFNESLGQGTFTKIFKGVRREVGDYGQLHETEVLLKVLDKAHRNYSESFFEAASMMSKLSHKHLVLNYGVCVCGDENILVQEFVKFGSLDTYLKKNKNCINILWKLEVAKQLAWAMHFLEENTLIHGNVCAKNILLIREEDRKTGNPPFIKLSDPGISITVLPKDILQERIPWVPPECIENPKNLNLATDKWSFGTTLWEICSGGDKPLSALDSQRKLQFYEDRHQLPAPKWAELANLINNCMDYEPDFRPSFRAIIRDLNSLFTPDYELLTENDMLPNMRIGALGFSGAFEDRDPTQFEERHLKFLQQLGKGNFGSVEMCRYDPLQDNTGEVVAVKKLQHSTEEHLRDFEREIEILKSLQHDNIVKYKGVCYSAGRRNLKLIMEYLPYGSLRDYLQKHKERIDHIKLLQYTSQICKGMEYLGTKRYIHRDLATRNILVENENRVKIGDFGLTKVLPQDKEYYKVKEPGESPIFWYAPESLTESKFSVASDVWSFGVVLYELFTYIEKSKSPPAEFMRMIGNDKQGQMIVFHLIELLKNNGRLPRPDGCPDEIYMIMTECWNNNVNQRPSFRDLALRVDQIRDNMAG

Row | Ki [1] | Ki [2] | SMILES
1 | < 10 nM | 100 to 1000 nM | O=C1NCc2nc(-c3c(F)cccc3F)nc(Nc3ccc(C4CCN(CCO)C4=O)cc3)c21 (stereo not drawn) [Compound I-149, 2-(2,6-difluorophenyl)-4-((4-(1-(2-hydroxyethyl)-2-oxopyrrolidin-3-yl)phenyl)amino)-6,7-dihydro-5H-pyrrolo[3,4-d]pyrimidin-5-one]
2 | < 10 nM | 100 to 1000 nM | COC(=O)C1COCCN1C(=O)Cc1ccc(Nc2nc(-c3c(F)cccc3F)nc3c2C(=O)NC3)cc1 (stereo not drawn) [Compound I-201, methyl 4-(2-(4-((2-(2,6-difluorophenyl)-5-oxo-6,7-dihydro-5H-pyrrolo[3,4-d]pyrimidin-4-yl)amino)phenyl)acetyl)morpholine-3-carboxylate]
3 | < 10 nM | 10 to 100 nM | O=C1NCc2nc(-c3c(F)cccc3F)cc(Nc3ccc(N4CCNCC4)cn3)c21 [Compound I-162, 2-(2,6-difluorophenyl)-4-((5-(piperazin-1-yl)pyridin-2-yl)amino)-6,7-dihydro-5H-pyrrolo[3,4-b]pyridin-5-one]
4 | 10 to 100 nM | 100 to 1000 nM | O=C(Cc1ccc(Nc2nc(-c3c(F)cccc3C(F)(F)F)nc3c2C(=O)NC3)cc1)NC1CCNCC1 [Compound I-83, 2-(4-((2-(2-fluoro-6-(trifluoromethyl)phenyl)-5-oxo-6,7-dihydro-5H-pyrrolo[3,4-d]pyrimidin-4-yl)amino)phenyl)-N-(piperidin-4-yl)acetamide]
5 | < 10 nM | 100 to 1000 nM | O=C(Cc1ccc(Nc2nc(-c3c(F)cccc3F)nc3c2C(=O)NC3)cc1)NCCO [Compound I-79, 2-(4-((2-(2,6-difluorophenyl)-5-oxo-6,7-dihydro-5H-pyrrolo[3,4-d]pyrimidin-4-yl)amino)phenyl)-N-(2-hydroxy-ethyl)acetamide]
6 | < 10 nM | 100 to 1000 nM | COCCOc1ccc(Nc2nc(-c3c(F)cccc3F)nc3c2C(=O)NC3)cc1 [Compound I-185, 2-(2,6-difluorophenyl)-4-((4-(2-methoxy-ethoxy)-phenyl)amino)-6,7-dihydro-5H-pyrrolo[3,4-d]pyrimidin-5-one]
7 | < 10 nM | 10 to 100 nM | O=C(NCC1CC1)c1ccc(Nc2cc(-c3c(F)cccc3F)nc3c2C(=O)NC3)nc1 [Compound I-226, N-(cyclopropylmethyl)-6-((2-(2,6-difluorophenyl)-5-oxo-6,7-dihydro-5H-pyrrolo[3,4-b]pyridin-4-yl)amino)nicotinamide]
8 | < 10 nM | 10 to 100 nM | O=C(NCCO)c1ccc(Nc2cc(-c3c(F)cccc3F)nc3c2C(=O)NC3)nc1 [Compound I-164, 6-((2-(2,6-difluorophenyl)-5-oxo-6,7-dihydro-5H-pyrrolo[3,4-b]pyridin-4-yl)amino)-N-(2-hydroxyethyl)nicotinamide]
9 | 100 to 1000 nM | > 1000 nM | O=C(Cc1ccc(Nc2nc(-c3c(F)cccc3F)nc3c2C(=O)NC3)cn1)NC1CCNCC1 [Compound I-19, 2-(5-((2-(2,6-difluorophenyl)-5-oxo-6,7-dihydro-5H-pyrrolo[3,4-d]pyrimidin-4-yl)amino)pyridin-2-yl)-N-(piperidin-4-yl)acetamide]
10 | < 10 nM | 10 to 100 nM | CN(C(=O)Cc1ccc(Nc2nc(-c3c(F)cccc3F)nc3c2C(=O)NC3)cc1)C1CCNCC1 [Compound I-22, 2-(4-((2-(2,6-difluorophenyl)-5-oxo-6,7-dihydro-5H-pyrrolo[3,4-d]pyrimidin-4-yl)amino)phenyl)-N-methyl-N-(piperidin-4-yl)acetamide]
11 | < 10 nM | 10 to 100 nM | C[C@]1(c2ccc(Nc3nc(-c4c(F)cccc4F)nc4c3C(=O)NC4)cc2)CCN(C2CCOCC2)C1=O [Compound I-126, (R)-2-(2,6-difluorophenyl)-4-((4-(3-methyl-2-oxo-1-(tetrahydro-2H-pyran-4-yl)pyrrolidin-3-yl)phenyl)amino)-6,7-dihydro-5H-pyrrolo[3,4-d]pyrimidin-5-one]
12 | 10 to 100 nM | > 1000 nM | Cn1cc(Nc2nc(-c3c(F)cccc3F)nc3c2C(=O)NC3)cn1 [Compound I-160, 2-(2,6-difluorophenyl)-4-((1-methyl-1H-pyrazol-4-yl)amino)-6,7-dihydro-5H-pyrrolo[3,4-d]pyrimidin-5-one]
13 | < 10 nM | 100 to 1000 nM | CCOC(=O)Cc1ccc(Nc2nc(-c3c(F)cccc3Cl)nc3c2C(=O)NC3)cc1 [Compound I-4, ethyl 2-(4-((2-(2-chloro-6-fluorophenyl)-5-oxo-6,7-dihydro-5H-pyrrolo[3,4-d]pyrimidin-4-yl)amino)phenyl)acetate]
14 | < 10 nM | < 10 nM | CN1CCN[C@](C)(c2ccc(Nc3cc(-c4c(F)cccc4F)nc4c3C(=O)NC4)nc2)C1=O [Compound I-224, (R)-2-(2,6-difluorophenyl)-4-((5-(2,4-dimethyl-3-oxopiperazin-2-yl)pyridin-2-yl)amino)-6,7-dihydro-5H-pyrrolo[3,4-b]pyridin-5-one]
15 | 100 to 1000 nM |  | O=C1NCc2nc(-c3c(F)cccc3F)nc(Nc3ccc(C4CCCCC4)cc3)c21 [Compound I-197, 4-((4-cyclohexylphenyl)amino)-2-(2,6-difluorophenyl)-6,7-dihydro-5H-pyrrolo[3,4-d]pyrimidin-5-one]
16 | 100 to 1000 nM |  | COC(=O)Cc1ncc(Nc2nc(-c3c(F)cccc3F)nc3c2C(=O)NC3)cn1 [Compound I-166, methyl 2-(5-((2-(2,6-difluorophenyl)-5-oxo-6,7-dihydro-5H-pyrrolo[3,4-d]pyrimidin-4-yl)amino)pyrimidin-2-yl)acetate]
17 | 10 to 100 nM |  | Cc1ccc(Nc2nc(-c3c(F)cccc3F)nc3c2C(=O)NC3)cc1F [Compound I-292, 2-(2,6-difluorophenyl)-4-((3-fluoro-4-methylphenyl)amino)-6,7-dihydro-5H-pyrrolo[3,4-d]pyrimidin-5-one]
18 | 10 to 100 nM |  | O=C1NCc2nc(-c3c(F)cccc3F)nc(Nc3ccc(OC(F)(F)F)cc3)c21 [Compound I-184, 2-(2,6-difluorophenyl)-4-((4-(trifluoro-methoxy)phenyl)amino)-6,7-dihydro-5H-pyrrolo[3,4-d]pyrimidin-5-one]
19 | 10 to 100 nM |  | O=C1NCc2nc(-c3c(F)cccc3F)nc(Nc3ccc(S(=O)(=O)C(F)(F)F)cc3)c21 [Compound I-236, 2-(2,6-difluorophenyl)-4-((4-((trifluoromethyl)sulfonyl)phenyl)-amino)-6,7-dihydro-5H-pyrrolo[3,4-d]pyrimidin-5-one]

Row | SMILES | Ki [1] | Ki [2]
20 | O=C1NCc2nc(-c3c(F)cccc3F)nc(Nc3ccc(CC(=O)N4CCOCC4C(=O)O)cc3)c21 (stereo not drawn) [Compound I-202, 4-(2-(4-((2-(2,6-difluorophenyl)-5-oxo-6,7-dihydro-5H-pyrrolo-[3,4-d]pyrimidin-4-yl)amino)phenyl)acetyl)morpholine-3-carboxylic Acid] | < 10 nM | 100 to 1000 nM
21 | NC(=O)Cc1ccc(Nc2nc(-c3ccccc3Cl)nc3c2C(=O)NC3)cc1 [Compound I-8, 2-(4-((2-(2-chlorophenyl)-5-oxo-6,7-dihydro-5H-pyrrolo[3,4-d]pyrimidin-4-yl)amino)phenyl)acetamide] | 10 to 100 nM | > 1000 nM
22 | O=C1NCc2nc(-c3c(F)cccc3F)nc(Nc3cnn(CC(=O)N4CCC[C@H]4CO)c3)c21 [Compound I-68, (S)-2-(2,6-difluorophenyl)-4-((1-(2-(2-(hydroxymethyl)pyrrolidin-1-yl)-2-oxoethyl)-1H-pyrazol-4-yl)amino)-6,7-dihydro-5H-pyrrolo[3,4-d]pyrimidin-5-one] | 10 to 100 nM | > 1000 nM
